Assay results from patent US20240390251A1, “SKIN CARE COMPOSITION AND USE THEREOF, AND SKIN CARE COMPOSITION RAW MATERIAL” (YAMASA CORPORATION, priority 2021, published 2024).

Tests used:
[1] = test system: inflammatory cytokine production; assay: Anti-inflammatory evaluation of purine nucleotides in a similar experimental system; type: cell-based, human; conditions: similar experimental system to Example 1
Protocol: (§1) Normal human keratinocytes (NHEK; manufactured by Kurabo Industries, Ltd.) were seeded in a 96-well plate at a density of 2.5×10^4 cells/well and cultured at 37° C. for 24 hours. The medium was replaced with 100 μL of sample-containing medium (HuMedia-KG2; manufactured by Kurabo Industries, Ltd.) and cultured for 24 hours. After removing the sample-containing medium, the plate was washed with 100 μL of Hanks balanced salt solution (HBSS (−)) and irradiated with 20 mJ/cm^2 using a UVB lamp (TL20W/12RS; manufactured by PHILIPS). After washing with HBSS (−), the medium was replaced with 100 μL of fresh medium and cultured for 24 hours. After culturing, the culture supernatant was collected. The sample solutions used were 0.8 (mg/mL) of UMP,2Na 0.4, 0.8 (mg/mL) of CMP,2Na 0.4, 0.8 (mg/mL) of U:C=1:1 (mass ratio 1:1 mixture of UMP,2Na and CMP,2Na) 0.4, 0.8 (mg/mL) of U:C=4:1 (mass ratio 4:1 mixture of UMP,2Na and CMP,2Na) 0.4, and 0.8 (mg/mL) of U:C=1:4 (mass ratio 1:4 mixture of UMP,2Na and CMP,2Na) 0.4.
The culture supernatant of human keratinocytes was collected, and amounts of IL-1α, IL-6, and IL-8 were quantified by ELISA.

IL-6 [2] = assay: Anti-inflammatory evaluation using UVB-irradiated normal human keratinocytes, IL-6 by ELISA; type: cell-based; conditions: NHEK, FIG. 2; for concentration dependence of the inhibitory effect on IL-6 / amount of IL-6 produced: UVB 20 mJ/cm^2, sample 0.4 and 0.8 mg/mL; for amount of IL-6 produced: culture supernatant
Protocol: as §1, with “The effects of using various nucleotides on photoaging of the skin were evaluated using normal human keratinocytes. The effects of various nucleotides on inflammatory cytokines induced by UV irradiation of normal human keratinocytes were evaluated. Known inflammatory cytokines IL-1α, IL-6, and IL-8 were used as the inflammatory cytokines to be evaluated. Normal” for “Normal”, “(-))” for “(−))”, “(T[…]/12RS;” for “(TL20W/12RS;”, “(-),” for “(−),”, “0.4. The culture supernatant of human keratinocytes was collected, and amounts of IL-1α, IL-6, and IL-8 were quantified by ELISA.” for “0.4.”

IL-1α [3] = assay: Anti-inflammatory evaluation using UVB-irradiated three-dimensional cultured human epidermis, IL-1α by ELISA; type: cell-based; conditions: UVB 600 mJ/cm^2, tested 0.125-1.0 w/v %, FIG. 4
Protocol: (§2) To reproduce the phenomenon that occurs in actual epidermis, three-dimensional cultured human epidermis was used to evaluate the suppression effect of cytidylic acid on inflammatory cytokines induced by UV irradiation. In addition, to verify the relationship between the amount of cytidylic acid and the suppression effect on inflammatory cytokine production, the effects of varying the amount of cytidylic acid were evaluated.
(§3) Three-dimensional cultured human epidermis (LabCyte EPI MODEL 24; manufactured by J TEC) was set in a 24-well plate to which 500 μL of the attached assay medium was added, and acclimated overnight at 37° C. 50 μL of sample-containing PBS (−) was applied from the stratum corneum side and cultured for 24 hours. After removing the sample-containing PBS (−), the plate was washed with PBS (−) and irradiated with 600 mJ/cm^2 using a UVB lamp (TL20W/12RS; manufactured by PHILIPS). The medium was replaced with a fresh medium, 50 μL of sample-containing PBS (−) was newly applied from the stratum corneum side, and further cultured for 48 hours. After culturing, the culture supernatant was collected. The concentrations of cytidylic acid in the respective samples were 0, 0.125, 0.25, 0.5, and 1.0 (w/v %), respectively. Each inflammatory cytokine contained in the supernatant was quantified by ELISA.

IL-6 [4] = assay: Anti-inflammatory evaluation using UVB-irradiated three-dimensional cultured human epidermis, IL-6 by ELISA; type: cell-based; conditions: UVB 600 mJ/cm^2, tested 0.125-1.0 w/v %, FIG. 5
Protocol: as §2, §3

IL-8 [5] = assay: Anti-inflammatory evaluation using UVB-irradiated three-dimensional cultured human epidermis, IL-8 by ELISA; type: cell-based; conditions: UVB 600 mJ/cm^2, tested 0.125-1.0 w/v %, FIG. 6
Protocol: as §2, §3

IL-1α [6] = assay: Anti-inflammatory evaluation using UVB-irradiated normal human keratinocytes, IL-1α by ELISA; type: cell-based; conditions: NHEK, UVB 20 mJ/cm^2, sample 0.4 and 0.8 mg/mL, FIG. 1; for amount of IL-1α produced: culture supernatant
Protocol: as §1, with “The effects of using various nucleotides on photoaging of the skin were evaluated using normal human keratinocytes. The effects of various nucleotides on inflammatory cytokines induced by UV irradiation of normal human keratinocytes were evaluated. Known inflammatory cytokines IL-1α, IL-6, and IL-8 were used as the inflammatory cytokines to be evaluated. Normal” for “Normal”, “(-))” for “(−))”, “(T[…]/12RS;” for “(TL20W/12RS;”, “(-),” for “(−),”, “0.4. The culture supernatant of human keratinocytes was collected, and amounts of IL-1α, IL-6, and IL-8 were quantified by ELISA.” for “0.4.”

IL-8 [7] = assay: Anti-inflammatory evaluation using UVB-irradiated normal human keratinocytes, IL-8 by ELISA; type: cell-based; conditions: NHEK, FIG. 3; for concentration dependence of the inhibitory effect on IL-8 / amount of IL-8 produced: UVB 20 mJ/cm^2, sample 0.4 and 0.8 mg/mL; for amount of IL-8 produced: culture supernatant
Protocol: as §1, with “The effects of using various nucleotides on photoaging of the skin were evaluated using normal human keratinocytes. The effects of various nucleotides on inflammatory cytokines induced by UV irradiation of normal human keratinocytes were evaluated. Known inflammatory cytokines IL-1α, IL-6, and IL-8 were used as the inflammatory cytokines to be evaluated. Normal” for “Normal”, “(-))” for “(−))”, “(T[…]/12RS;” for “(TL20W/12RS;”, “(-),” for “(−),”, “0.4. The culture supernatant of human keratinocytes was collected, and amounts of IL-1α, IL-6, and IL-8 were quantified by ELISA.” for “0.4.”

[8] = UVB 20 mJ/cm^2, significant difference between uridylic acid and cytidylic acid

SMILES	effect of inhibiting inflammatory cytokine production, compared with cytidylic acid and uridylic acid [1]	concentration dependence of the inhibitory effect on IL-6 (IL-6 [2])	amount of IL-6 produced (IL-6 [2])	effect of inhibiting IL-6 production, compared with uridylic acid (IL-6 [2]; [8])	concentration at which a significant IL-1α production inhibitory effect was observed (IL-1α [3]) [%]	concentration at which a significant IL-6 production inhibitory effect was observed (IL-6 [4]) [%]	concentration at which a significant IL-8 production inhibitory effect was observed (IL-8 [5]) [%]	concentration dependence of the inhibitory effect on IL-1α (IL-1α [6])	amount of IL-1α produced (IL-1α [6])	concentration dependence of the inhibitory effect on IL-8 (IL-8 [7])	amount of IL-8 produced (IL-8 [7])	effect of inhibiting IL-8 production, compared with uridylic acid (IL-8 [7]; [8])
Nc1ncnc2c1ncn2[C@@H]1O[C@H](COP(=O)(O)O)[C@@H](O)[C@H]1O [adenylic acid]	only a lower effect of inhibiting inflammatory cytokine production than cytidylic acid and uridylic acid	–	–	–	–	–	–	–	–	–	–	–
Nc1ccn([C@@H]2O[C@H](COP(=O)(O)O)[C@@H](O)[C@H]2O)c(=O)n1 [cytidylic acid]	–	increased the inhibitory effect in a concentration-dependent manner	suppressed the amount of IL-6 produced	particularly remarkable effect of inhibiting IL-6 production	≥ 0.25	≥ 0.125	≥ 0.125	increased the inhibitory effect in a concentration-dependent manner	suppressed the amount of IL-1α produced	increased the inhibitory effect in a concentration-dependent manner	suppressed the amount of IL-8 produced	particularly remarkable effect of inhibiting IL-8 production
Nc1nc2c(ncn2[C@@H]2O[C@H](COP(=O)(O)O)[C@@H](O)[C@H]2O)c(=O)[nH]1 [guanylic acid]	only a lower effect of inhibiting inflammatory cytokine production than cytidylic acid and uridylic acid	–	–	–	–	–	–	–	–	–	–	–
O=c1ccn([C@@H]2O[C@H](COP(=O)(O)O)[C@@H](O)[C@H]2O)c(=O)[nH]1 [uridylic acid]	–	increased the inhibitory effect in a concentration-dependent manner	suppressed the amount of IL-6 produced	–	–	–	–	increased the inhibitory effect in a concentration-dependent manner	suppressed the amount of IL-1α produced	increased the inhibitory effect in a concentration-dependent manner	suppressed the amount of IL-8 produced	–
